# Results: patent US9750723B2, “Prevention and treatment of non-alcoholic fatty liver disease” (Ohio University, priority 2014, dated 2017)
# Columns and labels:
# [1] = test system: C57BL/6J mice on the HFD; assay: Evaluation of phenylmethimazole in preventing NAFLD in mice (Example 2); format: in vivo
# Description: Triglycerides were quantified in accordance with the following general protocol, based upon the Salmon and Flatt Method of Liver Saponification. 50-100 mg of liver tissue was placed into an Eppendorf tube and weighed. Equal volume per weight of 3 M KOH (in 65% EtOH) was added to the tube and vortexed. The tube was placed at 70° C. for 1 hr to activate digestion. The tubes were vortexed every 15 minutes. The tube was set at room temperature overnight to allow for complete digestion, and was vortexed periodically. The sample was diluted to a final concentration of 100 mg of liver tissue per 600 μl fluid; the sample was diluted by adding 2 M Tris-HCl (un-pHed) to a final concentration of 50 mM. Where a second dilution was required, the sample was diluted using 50 mM Tris-HCl (pH 7.5). Triglycerides-GPO (0.5 mL, liquid; Pointe Scientific Cat. No. T7532-500; Fisher Scientific, Pittsburgh, Pa.) were aliquoted into Eppendorf tubes and warmed in a 37° C. water bath for 5-10 minutes. Glycerol standards (0, 1, 2.5, 5, 7.5 and 10 mmol/L) were made by diluting 10 mmol/L stock of glycerol, such as, e.g., with 50 mM Tris-HCl. 5 μL of the sample and glycerol standards (0, 1, 2.5, 5, 7.5 and 10 mmol/L) were added to 0.5 mL of the triglycerides-GPO, mixed, and incubated at room temperature for 5 minutes. The mixture was then vortexed and added (200 μL) to each well of a 96-well flat-bottom ELISA plate (in duplicate). Absorbance (i.e., optical density) was read at 500 nm. The concentrations of the samples were determined via use of a plot of glycerol standards concentration (mmol/L) with respect to optical density (i.e., O.D.) at 500 nm. The concentration of glycerol (mg glycerol/g tissue) was then calculated and triglyceride concentration was determined, in accordance with calculations known to those of ordinary skill in the art.
# Experimental Protocol. 7 week old male C57BL/6J mice were placed on either a LFD (i.e., having a fat content of 10%, N=8) or a HFD (i.e., having a fat content of 60%, N=40). The mice placed on the LFD served as a control. […]
# After 18 weeks, all of the C57BL/6J mice were euthanized. […] More specifically, NAFLD was evaluated in the liver tissue of the euthanized C57BL/6J mice microscopically and molecularly. Following euthanasia, the liver of each mouse was removed and divided, wherein one portion was used for the microscopic analysis of NAFLD and another portion was used for the molecular analysis of NAFLD (i.e., quantification of triglycerides). Quantification of triglycerides was performed in accordance with the general protocol described in Example 1.
# [2] = test system: C57BL/6J mice placed on an HFD; assay: Evaluation of phenylmethimazole in treating NAFLD in C57BL/6J mice fed high fat diet (Example 3); format: in vivo; settings: HFD mice with NAFLD, ip once daily 1, 3 or 10 mg/kg/day for 16 weeks (up to 24 weeks); contemplated result
# Description: Experimental Protocol. C57BL/6J mice are placed on an HFD containing 60% fat (by % Kcal) (Diet #D12492, Research Diets, Inc.) for a period of weeks (as determined by the results of Example 1) until development of NAFLD is observed and clearly distinguishable from LFD-fed mice of the same age (between 4-8 weeks). At the time or after NAFLD is observed, once daily ip injections of phenylmethimazole (i.e., C10), DMSO, or sham are administered. 5 mice are then euthanized weekly thereafter to characterize the effects of C10, DMSO, and/or sham on treatment of NAFLD for the period of 16 weeks post-initiation of C10, DMSO, and sham administration. The period of time for which treatment is administered will be extended to 24 weeks if no effect of C10 administration on treatment of NAFLD is observed. The following Table further illustrates the experimental design: […]
# NAFLD is evaluated in the liver of the HFD mice macroscopically, microscopically, and molecularly. […] Then, the liver of each mouse is split in half, wherein one half is used for microscopic analysis of NAFLD and the remaining half is used for molecular analysis of NAFLD (i.e., quantification of triglycerides). Quantification of triglycerides is performed in accordance with the general protocol described in Example 1.
# [3] = test system: patient at risk for developing NAFLD; assay: Therapeutic use of phenylmethimazole to prevent development of NAFLD (Example 4); format: in vivo, human; settings: once daily oral dose of 1 mg/kg chronically, contemplated result
# Description: Experimental Protocol. A patient at risk for developing NAFLD is prescribed phenylmethimazole to prevent excess accumulation of fat. The patient takes a once daily oral dose of 1 mg/kg of body weight of phenylmethimazole chronically, during which fat content in the liver is determined via liver function testing, liver ultrasound, and liver biopsy.
# [4] = test system: patient having NAFLD; assay: Therapeutic use of phenylmethimazole to treat NAFLD (Example 5); format: in vivo, human; settings: once daily oral dose of 3 mg/kg for 16 weeks, contemplated result
# Description: Experimental Protocol. A patient having NAFLD is prescribed phenylmethimazole to reduce the fat content in their liver. After determination of a baseline level of fat content in their liver, the patient takes a once daily oral dose of 3 mg/kg of body weight of phenylmethimazole for a period of 16 weeks, during which fat content in their liver tissue is determined via liver function testing, liver ultrasound, and liver biopsy.
smiles,measurement,setting,value
"Cn1c(-c2ccccc2)cnc1S [phenylmethimazole, 5-Phenylmethimazole]","fatty liver disease, macroscopically observed in liver tissue","[1]; ip 0.1 mg/kg, 1 mg/kg or 10 mg/kg once daily for 18 weeks, compared to HFD mice with sham injection or DMSO",much less fatty liver disease despite obesity
same,triglyceride concentration in liver tissue (FIG. 4),"[1]; ip 1 mg/kg or 10 mg/kg once daily for 18 weeks, compared to HFD mice with no phenylmethimazole",lower triglyceride concentration
same,prevention of NAFLD,"[1]; ip 0.1, 1, 10 mg/kg once daily for 18 weeks",prevented NAFLD in the mice fed the HFD in a dose-dependent manner
same,"fatty liver disease, microscopic observation of liver tissue (FIG. 3(B)-(D))","[1]; ip 0.1, 1 or 10 mg/kg once daily for 18 weeks, compared to HFD mice with sham injection or DMSO",much less fatty liver disease
same,fat content in the liver tissue of the mice,[2],reduced relative to a baseline level
same,excess accumulation of fat in the liver,[3],no excess accumulation of fat has occurred
same,fat content in the patient's liver,[4],reduced relative to the baseline level
